What was measured:
Test in all cases: KINOMEscan scanMAX
Assay type in all cases: binding
Details in all cases: 2000 nM; read-out: Percent Control
[1] = target: ACVR2A (Homo sapiens (Human), UniProt P27037)
[2] = target: ACVR2B (Homo sapiens (Human), UniProt Q13705)
[3] = target: ASK2 (MAP3K6) (Homo sapiens (Human), UniProt O95382)
[4] = target: BMPR1A (Homo sapiens (Human), UniProt P36894)
[5] = target: CASK (Homo sapiens (Human), UniProt O14936)
[6] = target: CDK2 (Homo sapiens (Human), UniProt P24941)
[7] = target: CDKL2 (Homo sapiens (Human), UniProt Q92772)
[8] = target: CSNK1A1 (Homo sapiens (Human), UniProt P48729)
[9] = target: CTK (MATK) (Homo sapiens (Human), UniProt P42679)
[10] = target: FGFR3 (Homo sapiens (Human), UniProt P22607)
Chain of FGFR3 (P22607 23-806): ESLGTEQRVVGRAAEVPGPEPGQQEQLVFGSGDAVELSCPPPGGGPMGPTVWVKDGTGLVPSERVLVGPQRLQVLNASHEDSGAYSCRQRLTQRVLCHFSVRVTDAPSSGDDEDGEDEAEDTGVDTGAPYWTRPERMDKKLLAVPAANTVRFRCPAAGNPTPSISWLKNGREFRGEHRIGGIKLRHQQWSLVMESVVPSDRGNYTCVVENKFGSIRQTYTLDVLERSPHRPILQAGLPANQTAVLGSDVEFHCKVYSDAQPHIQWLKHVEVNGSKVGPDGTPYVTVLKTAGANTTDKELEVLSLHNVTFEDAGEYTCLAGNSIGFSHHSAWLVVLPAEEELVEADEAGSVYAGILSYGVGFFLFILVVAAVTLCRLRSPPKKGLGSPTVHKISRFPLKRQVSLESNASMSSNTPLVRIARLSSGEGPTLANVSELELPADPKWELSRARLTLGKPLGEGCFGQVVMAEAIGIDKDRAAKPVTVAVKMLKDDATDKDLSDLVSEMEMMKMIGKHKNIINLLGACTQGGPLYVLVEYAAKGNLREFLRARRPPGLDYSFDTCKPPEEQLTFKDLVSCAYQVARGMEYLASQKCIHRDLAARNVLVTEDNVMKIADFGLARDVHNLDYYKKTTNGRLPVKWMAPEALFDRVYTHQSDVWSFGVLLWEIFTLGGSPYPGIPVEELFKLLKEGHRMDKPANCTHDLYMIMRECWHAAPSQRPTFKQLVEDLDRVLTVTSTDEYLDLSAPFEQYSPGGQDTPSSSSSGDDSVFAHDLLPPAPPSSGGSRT

[11] = target: FLT3 (Homo sapiens (Human), UniProt P36888)
[12] = target: FLT3(D835Y) (Homo sapiens (Human), UniProt P36888, D835Y)
[13] = target: FLT4 (Homo sapiens (Human), UniProt P35916)
[14] = target: GCN2(Kin.Dom.2, S808G) (EIF2AK4) (Homo sapiens (Human), UniProt Q9P2K8, S808G)
[15] = target: GRK3 (ADRBK2) (Homo sapiens (Human), UniProt P35626)
[16] = target: GRK7 (Homo sapiens (Human), UniProt Q8WTQ7)
[17] = target: HASPIN (GSG2) (Homo sapiens (Human), UniProt Q8TF76)
[18] = target: INSRR (Homo sapiens (Human), UniProt P14616)
[19] = target: JAK1(JH1domain-catalytic) (Homo sapiens (Human), UniProt P23458)
[20] = target: KIT(A829P) (Homo sapiens (Human), UniProt P10721, A829P)
[21] = target: KIT(D816H) (Homo sapiens (Human), UniProt P10721, D816H)
[22] = target: LIMK2 (Homo sapiens (Human), UniProt P53671)
[23] = target: LRRK2(G2019S) (Homo sapiens (Human), UniProt Q5S007, G2019S)
[24] = target: MERTK (Homo sapiens (Human), UniProt Q12866)
Chain of MERTK (Q12866 21-999): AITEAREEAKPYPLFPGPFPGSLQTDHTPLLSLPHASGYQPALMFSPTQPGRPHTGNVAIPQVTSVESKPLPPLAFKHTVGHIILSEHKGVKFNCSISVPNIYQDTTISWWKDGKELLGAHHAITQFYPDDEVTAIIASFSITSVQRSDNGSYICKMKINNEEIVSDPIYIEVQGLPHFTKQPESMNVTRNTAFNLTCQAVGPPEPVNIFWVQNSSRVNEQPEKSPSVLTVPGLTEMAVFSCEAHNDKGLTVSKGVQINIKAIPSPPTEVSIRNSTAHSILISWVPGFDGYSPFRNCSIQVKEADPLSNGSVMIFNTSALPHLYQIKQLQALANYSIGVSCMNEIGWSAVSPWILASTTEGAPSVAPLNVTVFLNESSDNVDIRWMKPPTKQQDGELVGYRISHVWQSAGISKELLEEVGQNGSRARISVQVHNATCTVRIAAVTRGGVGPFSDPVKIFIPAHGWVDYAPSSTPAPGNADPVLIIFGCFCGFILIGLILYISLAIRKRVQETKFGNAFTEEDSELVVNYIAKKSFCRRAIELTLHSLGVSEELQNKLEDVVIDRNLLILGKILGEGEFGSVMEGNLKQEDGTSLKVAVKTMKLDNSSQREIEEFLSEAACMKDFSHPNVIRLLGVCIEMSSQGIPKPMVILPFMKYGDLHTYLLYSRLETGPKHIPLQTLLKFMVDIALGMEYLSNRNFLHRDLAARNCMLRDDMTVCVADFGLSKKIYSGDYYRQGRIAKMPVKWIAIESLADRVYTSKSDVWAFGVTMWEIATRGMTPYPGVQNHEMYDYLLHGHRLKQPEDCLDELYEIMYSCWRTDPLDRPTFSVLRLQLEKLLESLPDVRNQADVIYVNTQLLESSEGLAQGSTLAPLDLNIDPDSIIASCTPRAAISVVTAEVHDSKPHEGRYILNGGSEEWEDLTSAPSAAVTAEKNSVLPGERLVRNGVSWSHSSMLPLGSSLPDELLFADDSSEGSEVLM

[25] = target: MKNK1 (Homo sapiens (Human), UniProt Q9BUB5)
Chain of MKNK1 (Q9BUB5 whole entry): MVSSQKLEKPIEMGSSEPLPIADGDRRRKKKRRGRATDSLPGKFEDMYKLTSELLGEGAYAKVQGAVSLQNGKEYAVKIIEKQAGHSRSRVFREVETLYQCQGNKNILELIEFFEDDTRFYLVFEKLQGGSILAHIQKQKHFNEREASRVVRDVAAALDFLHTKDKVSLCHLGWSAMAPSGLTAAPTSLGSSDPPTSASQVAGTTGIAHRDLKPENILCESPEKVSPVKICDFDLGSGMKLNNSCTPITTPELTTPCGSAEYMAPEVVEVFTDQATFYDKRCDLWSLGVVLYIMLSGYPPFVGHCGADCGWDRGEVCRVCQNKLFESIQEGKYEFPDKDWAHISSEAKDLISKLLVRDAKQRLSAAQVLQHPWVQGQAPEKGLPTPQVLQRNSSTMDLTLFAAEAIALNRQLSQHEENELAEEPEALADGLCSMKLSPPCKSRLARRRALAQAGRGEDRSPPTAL

[26] = target: MRCKA (CDC42BPA) (Homo sapiens (Human), UniProt Q5VT25)
[27] = target: p38-beta (MAPK11) (Homo sapiens (Human), UniProt Q15759)
[28] = target: PAK2 (Homo sapiens (Human), UniProt Q13177)
[29] = target: PAK7 (Homo sapiens (Human), UniProt Q9P286)
[30] = target: PIK3CA(C420R) (Homo sapiens (Human), UniProt P42336, C420R)
[31] = target: PIK3CA(H1047Y) (Homo sapiens (Human), UniProt P42336, H1047Y)
[32] = target: PIM2 (Homo sapiens (Human), UniProt Q9P1W9)
[33] = target: PIM3 (Homo sapiens (Human), UniProt Q86V86)
[34] = target: PIP5K2C (PIP4K2C) (Homo sapiens (Human), UniProt Q8TBX8)
[35] = target: SGK (SGK1) (Homo sapiens (Human), UniProt O00141)
Chain of SGK (SGK1) (O00141 whole entry): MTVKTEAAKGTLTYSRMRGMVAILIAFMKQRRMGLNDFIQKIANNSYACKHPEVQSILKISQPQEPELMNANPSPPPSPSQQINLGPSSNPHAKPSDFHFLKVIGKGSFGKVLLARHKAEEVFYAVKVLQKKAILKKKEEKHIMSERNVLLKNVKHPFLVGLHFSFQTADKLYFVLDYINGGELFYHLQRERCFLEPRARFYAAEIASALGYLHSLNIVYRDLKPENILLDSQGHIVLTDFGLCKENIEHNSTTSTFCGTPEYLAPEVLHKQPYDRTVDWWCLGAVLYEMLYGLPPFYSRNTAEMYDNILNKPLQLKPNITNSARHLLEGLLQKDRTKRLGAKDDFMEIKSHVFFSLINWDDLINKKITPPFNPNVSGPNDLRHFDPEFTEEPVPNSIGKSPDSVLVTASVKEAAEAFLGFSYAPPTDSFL

[36] = target: SNRK (Homo sapiens (Human), UniProt Q9NRH2)
Chain of SNRK (Q9NRH2 whole entry): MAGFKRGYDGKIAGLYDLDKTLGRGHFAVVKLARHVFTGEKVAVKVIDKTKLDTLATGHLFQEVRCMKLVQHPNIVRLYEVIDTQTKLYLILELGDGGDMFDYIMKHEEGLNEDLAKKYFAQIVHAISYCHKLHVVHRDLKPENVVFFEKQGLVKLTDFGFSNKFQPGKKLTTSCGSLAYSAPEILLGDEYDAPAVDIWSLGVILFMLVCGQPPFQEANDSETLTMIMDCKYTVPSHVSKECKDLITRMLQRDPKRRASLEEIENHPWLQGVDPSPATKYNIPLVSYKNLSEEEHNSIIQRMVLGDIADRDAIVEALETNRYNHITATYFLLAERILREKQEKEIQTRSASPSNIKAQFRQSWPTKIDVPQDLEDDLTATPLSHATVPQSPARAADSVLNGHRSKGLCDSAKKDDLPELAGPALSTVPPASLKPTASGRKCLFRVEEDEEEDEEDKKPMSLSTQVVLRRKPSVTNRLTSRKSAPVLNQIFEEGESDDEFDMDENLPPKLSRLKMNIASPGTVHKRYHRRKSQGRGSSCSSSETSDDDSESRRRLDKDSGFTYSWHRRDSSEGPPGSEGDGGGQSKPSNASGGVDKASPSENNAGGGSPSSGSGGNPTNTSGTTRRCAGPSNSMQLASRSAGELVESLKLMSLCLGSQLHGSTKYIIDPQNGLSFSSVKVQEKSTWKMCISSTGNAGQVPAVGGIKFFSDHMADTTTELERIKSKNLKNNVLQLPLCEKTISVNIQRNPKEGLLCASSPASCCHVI

[37] = target: TNK1 (Homo sapiens (Human), UniProt Q13470)
Chain of TNK1 (Q13470 whole entry): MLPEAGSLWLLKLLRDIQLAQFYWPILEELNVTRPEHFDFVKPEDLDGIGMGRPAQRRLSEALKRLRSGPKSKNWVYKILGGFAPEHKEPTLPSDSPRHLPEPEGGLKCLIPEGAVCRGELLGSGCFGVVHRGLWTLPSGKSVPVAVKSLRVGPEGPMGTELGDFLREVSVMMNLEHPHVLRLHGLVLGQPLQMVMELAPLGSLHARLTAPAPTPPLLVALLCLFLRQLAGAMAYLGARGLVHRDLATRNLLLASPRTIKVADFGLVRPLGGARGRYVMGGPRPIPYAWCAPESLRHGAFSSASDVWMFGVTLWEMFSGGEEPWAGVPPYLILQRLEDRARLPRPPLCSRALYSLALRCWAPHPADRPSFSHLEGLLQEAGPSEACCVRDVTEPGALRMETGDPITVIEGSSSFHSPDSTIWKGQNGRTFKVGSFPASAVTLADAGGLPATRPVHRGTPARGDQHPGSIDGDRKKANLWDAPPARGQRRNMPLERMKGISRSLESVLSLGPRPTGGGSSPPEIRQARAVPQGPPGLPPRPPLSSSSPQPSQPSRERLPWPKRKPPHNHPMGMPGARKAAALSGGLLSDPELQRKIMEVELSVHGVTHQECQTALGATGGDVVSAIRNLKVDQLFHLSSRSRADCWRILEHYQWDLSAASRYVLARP

[38] = target: TTK (Homo sapiens (Human), UniProt P33981)
[39] = target: WNK4 (Homo sapiens (Human), UniProt Q96J92)

Chain of ACVR2B (Q13705 19-512): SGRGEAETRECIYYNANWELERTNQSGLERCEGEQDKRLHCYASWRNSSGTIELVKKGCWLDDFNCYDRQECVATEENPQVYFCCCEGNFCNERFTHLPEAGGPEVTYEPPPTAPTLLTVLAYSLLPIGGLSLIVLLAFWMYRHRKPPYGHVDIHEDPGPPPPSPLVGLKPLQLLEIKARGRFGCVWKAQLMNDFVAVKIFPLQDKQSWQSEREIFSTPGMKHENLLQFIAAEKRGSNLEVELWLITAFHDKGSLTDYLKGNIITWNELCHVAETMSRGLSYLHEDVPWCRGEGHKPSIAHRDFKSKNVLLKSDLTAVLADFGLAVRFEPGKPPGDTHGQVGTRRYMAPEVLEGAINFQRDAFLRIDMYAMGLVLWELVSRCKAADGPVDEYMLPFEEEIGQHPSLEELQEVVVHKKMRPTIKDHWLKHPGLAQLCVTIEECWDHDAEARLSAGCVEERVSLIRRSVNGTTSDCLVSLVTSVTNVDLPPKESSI

With `CN1CCN(C(=O)c2ccc3cc(CCNc4ccnc5ccc(C#N)cc45)ccc3c2)CC1` [compound 6148, 4-((2-(6-(4-methylpiperazine-1-carbonyl)naphthalen-2-yl)ethyl)amino)quinoline-6-carbonitrile] the remaining binding at 2 µM [1] was 89%, the remaining binding at 2 µM [2] was 90% and the remaining binding at 2 µM [3] was 79%. For the same compound, the remaining binding at 2 µM [4] was 95%, the remaining binding at 2 µM [5] was 84% and the remaining binding at 2 µM [6] was 95%. The remaining binding at 2 µM [7] was 75%, the remaining binding at 2 µM [8] was 76% and the remaining binding at 2 µM [9] was 56%. The remaining binding at 2 µM [10] was 100%, the remaining binding at 2 µM [11] was 89% and the remaining binding at 2 µM [12] was 73%. The remaining binding at 2 µM [13] was 97%, the remaining binding at 2 µM [14] was 93% and the remaining binding at 2 µM [15] was 73%. For the same compound, the remaining binding at 2 µM [16] was 87%, the remaining binding at 2 µM [17] was 29% and the remaining binding at 2 µM [18] was 88%. For the same compound, the remaining binding at 2 µM [19] was 94%, the remaining binding at 2 µM [20] was 82% and the remaining binding at 2 µM [21] was 57%. It also gave a remaining binding at 2 µM [22] of 93%, a remaining binding at 2 µM [23] of 56% and a remaining binding at 2 µM [24] of 89%. It also gave a remaining binding at 2 µM [25] of 72%, a remaining binding at 2 µM [26] of 98% and a remaining binding at 2 µM [27] of 80%. It also gave a remaining binding at 2 µM [28] of 84%, a remaining binding at 2 µM [29] of 100% and a remaining binding at 2 µM [30] of 73%. For the same compound, the remaining binding at 2 µM [31] was 91%, the remaining binding at 2 µM [32] was 81% and the remaining binding at 2 µM [33] was 96%. For the same compound, the remaining binding at 2 µM [34] was 84%, the remaining binding at 2 µM [35] was 50% and the remaining binding at 2 µM [36] was 75%. The remaining binding at 2 µM [37] was 95%, the remaining binding at 2 µM [38] was 72% and the remaining binding at 2 µM [39] was 69%.

— patent publication US12281080B2, “Quinoline-based compounds and methods of inhibiting CDK8/19” (University of South Carolina, priority 2018, dated 2025)
